Measured values as given in US9821000B2, “Compounds, compositions and corresponding uses for preventing and/or treating of dyslipidemia” (CENTRE NATIONAL DE LA RECHERCHE SCIENTIFIQUE (CNRS), priority 2013, dated 2017).
Entries after “also recorded” stand apart in the source; their conditions may differ.

Key:
[1] = system: UPR response; assay: UPR triggering test (4xUPRE-LacZ reporter, β-galactosidase activity) in hem1Δ yeast; assay type: cell-based, Saccharomyces cerevisiae; conditions: hem1Δ in liquid medium inducing SFA accumulation, 200 μM compound
From the text: A plasmidic construction carrying a fusion gene, corresponding to the encoding sequence of the gene LacZ placed under dependence of an artificial promoter containing four UPR elements (UPRE) was introduced into a hem1Δf yeast strain, as described in Pineau et al. (2009). During an induction of the UPR response, the Hac1p/XBP1p transcription is activated and gets fixed on the UPR elements of the fusion gene, leading to the transcription of the LacZ gene. With LacZ encoding β-galactosidase, the level of induction of UPR is measured to detect the corresponding enzyme activity. The hem1Δ yeast strain was cultivated in a liquid medium inducing the accumulation of SFA without other addition (Ø), or in the same medium supplemented with 200 μM of oleic acid, OAG or LPA as indicated. A.U.: arbitrary units.
The hem1Δ strain transformed by the plasmid pPW344 [2 μ URA34×UPRE-LacZ (Patil et al., 2004)] is cultivated in liquid medium YPG^A, YPG or YPG+200 μM of compound to be tested in aerobic conditions, under stirring and at 28° C. for 7 h, starting from an initial cell concentration of 2·10^6 cells/mL. At the end of the culture, 10^8 cells are collected in order to quantify the beta-galactosidase (β-gal) activity resulting from the expression of the LacZ trans gene (in the case of a triggering of UPR). […]

[2] = system: hem1Δ yeasts; assay: Phospholipid fatty acid content by mass spectrometry in lipo-intoxicated hem1Δ yeasts; assay type: cell-based, Saccharomyces cerevisiae; conditions: hem1Δ, SFA accumulation, 100 μM compound; for production of di-unsaturated phospholipids (level of PC species 36:2): 7 h
Experimental: The hem1Δ yeasts were cultivated in standard conditions (control) or in conditions of SFA accumulation without (Ø) or with the addition of 100 μM of oleic acid, LPA or OAG as indicated.
FIG. 6A—After 7 h of incubation, the phospholipids (PL) were extracted and the different species of phosphatidylcholine (PC), which constitute the predominantly present PL were analyzed by mass spectrometry in positive mode, according to Pineau et al. (2008).
FIG. 6B—All the species of PL detectable in these conditions of mass spectrometry were analyzed to globally quantify the content in SFA forms.
The hem1Δ strain is cultivated in a YPG^A, YPG^+ or YPG^+ liquid medium+200 μM of compound to be tested in aerobic conditions, under stirring and at 28° C. for 7 h, starting from an initial cell concentration of 2·10^6 cells/mL. At the end of the culture, 10^8 cells are collected in order to carry out the extraction of the total lipids. After the cells have been put in suspension in 1 mL of distilled water at 4° C., 500 μL of glass beads (Ø 0.6 mm) are added and the whole mixture then undergoes three sequences of 20 seconds at 5000 rpm in a stirrer (the tubes are kept on ice between each of the three sequences). The cellular lysate then obtained, complemented with water for rinsing the beads (1 mL), is then transferred into a 40 mL glass tube (Corex™) and then the lipids are extracted by using a methanol:chloroform ratio of 2:1 (v/v). Initially, 6 mL of methanol are added and the entire mixture is vortexed for 30 seconds and then incubated for 15 minutes at 65° C. Once the mixture has been cooled to ambient temperature, […] of chloroform is added and then the entire mixture is again vortexed for 30 seconds before allowing the extraction to take place for 16 h. Subsequently, the sample is centrifuged for 12 minutes at 10000 g and then the supernatant is transferred into a new Corex™ tube. After the addition of 2 mL of chloroform and then 4 mL of distilled water, the entire mixture is vortexed for 30 seconds and then centrifuged for 8 minutes at 3000 g. After elimination of the resultant upper phase, the lower organic phase is collected in a hemolysis tube made of glass. Finally, the solvent is evaporated under a nitrogen stream at 80° C. to obtain total cell lipid samples.
The samples of total cell lipids are put back into suspension in 1 mL of dichloromethane in being vortexed for 30 seconds. The entire mixture is deposited on a silica column (BOND ELUT-SI, 100 mg 1 mL) preconditioned with 3 mL of methanol and then 2 mL of dichloromethane successively. The fraction retained by the column is then washed with 2 mL of dichloromethane and then 2 mL of acetone successively. Finally, 2 mL of a mixture of chloroform/methanol/water 50:45:5 (v/v/v) are deposited on the column and the phospholipids thus eluted are collected in a glass hemolysis tube. The solvent is evaporated under nitrogen at 80° C. to obtain the samples of cellular phospholipids.
Once put back into suspension in 100 μL of mixture Mix^− (isopropanol/acetonitrile/water 2:1:1 (v/v/v)+triethylamine 1% (v/v)) or mixture Mix^+ (isopropanol/acetonitrile/water 2:1:1 (v/v/v)+formic acid 1% (v/v)), the samples are analyzed by mass spectrometry (Electro Spray Ionization-Mass Spectrometry (ESI-MS)) in negative or positive mode respectively and the results obtained serve to analyze the fatty acid content of the different species of phospholipids.

Compound | UPR response in lipo-intoxicated yeasts (β-galactosidase activity) [1] | index of saturation of phospholipids compared with control condition [2] | production of di-unsaturated phospholipids (level of PC species 36:2) [2]
CCCCCCCC/C=C\CCCCCCCC(=O)OC[C@H](CO)OC(C)=O [OAG, 1-oleoyl-2-acetyl-sn-glycerol] | reduce the UPR response | does not restore an index of saturation comparable to the one observed in the control condition | does not restore the production; also recorded: not the case
CCCCCCCC/C=C\CCCCCCCC(=O)OC[C@@H](O)COP(=O)(O)O [LPA, 1-oleoyl-sn-glycerol-3-phosphate] | reduce the UPR response |  | increase of the level of this species
